Test results from the supplement of paper PMC10307832.

Legend:
Experiment in all cases: relative viability (nuclei count vs DMSO), 5 days (fraction); higher = more cells survive
[1] = test system: LOU-NH91
Method in brief: (§1)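 Medians of duplicate plates are given as relative viability. That measure is the nuclei count in treated wells divided by the count in vehicle wells. Counts were taken on 4× images of lung cancer cell lines in 1536-well plates, 5 days after pin-tool dosing the day after seeding with one drug alone or a fixed anchor-drug dose plus five library-drug doses (not always all listed) in √10 steps.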

[2] = test system: NCI-H3122
Method in brief: as §1

[3] = test system: NCI-H2085
Method in brief: as §1

[4] = test system: HCC-366
Method in brief: as §1

[5] = test system: NCI-H1437
Method in brief: as §1

[6] = test system: LXF-289
Method in brief: as §1

[7] = test system: NCI-H1623
Method in brief: as §1

[8] = test system: NCI-H1299
Method in brief: as §1

[9] = test system: NCI-H1703
Method in brief: as §1

[10] = test system: NCI-H1648
Method in brief: as §1

[11] = test system: IA-LM
Method in brief: as §1

[12] = test system: EBC-1
Method in brief: as §1

[13] = test system: A549
Method in brief: as §1

[14] = test system: HCC-44
Method in brief: as §1

[15] = test system: Calu-6
Method in brief: as §1

SMILES: COc1cc2nccc(Oc3ccc(NC(=O)Nc4cc(C)on4)c(Cl)c3)c2cc1OC [Tivozanib] + Cc1nc(Nc2ncc(C(=O)Nc3c(C)cccc3Cl)s2)cc(N2CCN(CCO)CC2)n1 [Dasatinib] (partner 0.075 µM)
- relative viability ([1]; first compound 0.005 µM): 0.514
- relative viability ([1]; first compound 0.01581 µM): 0.569
- relative viability ([1]; first compound 0.05 µM): 0.595
- relative viability ([1]; first compound 0.1581 µM): 0.518
- relative viability ([1]; first compound 0.5 µM): 0.525
- relative viability ([2]; first compound 0.005 µM): 0.986
- relative viability ([2]; first compound 0.01581 µM): 0.821
- relative viability ([2]; first compound 0.05 µM): 0.754
- relative viability ([2]; first compound 0.1581 µM): 0.604
- relative viability ([2]; first compound 0.5 µM): 0.887
- relative viability ([3]; first compound 0.005 µM): 0.226
- relative viability ([3]; first compound 0.01581 µM): 0.207
- relative viability ([3]; first compound 0.05 µM): 0.233
- relative viability ([3]; first compound 0.1581 µM): 0.315
- relative viability ([3]; first compound 0.5 µM): 0.224
- relative viability ([4]; first compound 0.005 µM): 0.582
- relative viability ([4]; first compound 0.01581 µM): 0.601
- relative viability ([4]; first compound 0.05 µM): 0.671
- relative viability ([4]; first compound 0.1581 µM): 0.727
- relative viability ([4]; first compound 0.5 µM): 0.587
- relative viability ([5]; first compound 0.005 µM): 0.292
- relative viability ([5]; first compound 0.01581 µM): 0.449
- relative viability ([5]; first compound 0.05 µM): 0.38
- relative viability ([5]; first compound 0.1581 µM): 0.284
- relative viability ([5]; first compound 0.5 µM): 0.276
- relative viability ([6]; first compound 0.005 µM): 0.214
- relative viability ([6]; first compound 0.01581 µM): 0.203
- relative viability ([6]; first compound 0.05 µM): 0.279
- relative viability ([6]; first compound 0.1581 µM): 0.264
- relative viability ([6]; first compound 0.5 µM): 0.216
- relative viability ([7]; first compound 0.005 µM): 0.509
- relative viability ([7]; first compound 0.01581 µM): 0.56
- relative viability ([7]; first compound 0.05 µM): 0.578
- relative viability ([7]; first compound 0.5 µM): 0.527

SMILES: COc1cc2nccc(Oc3ccc(NC(=O)Nc4cc(C)on4)c(Cl)c3)c2cc1OC [Tivozanib] + O=C(c1cc(Cc2n[nH]c(=O)c3ccccc23)ccc1F)N1CCN(C(=O)C2CC2)CC1 [Olaparib] (partner 8 µM)
- relative viability ([1]; first compound 0.005 µM): 0.894
- relative viability ([1]; first compound 0.01581 µM): 0.902
- relative viability ([1]; first compound 0.05 µM): 0.932
- relative viability ([1]; first compound 0.1581 µM): 0.891
- relative viability ([1]; first compound 0.5 µM): 0.871
- relative viability ([2]; first compound 0.005 µM): 0.616
- relative viability ([2]; first compound 0.01581 µM): 0.641
- relative viability ([2]; first compound 0.05 µM): 0.768
- relative viability ([2]; first compound 0.1581 µM): 0.684
- relative viability ([2]; first compound 0.5 µM): 0.606
- relative viability ([8]; first compound 0.005 µM): 0.969
- relative viability ([8]; first compound 0.01581 µM): 1.01
- relative viability ([8]; first compound 0.05 µM): 0.962
- relative viability ([8]; first compound 0.1581 µM): 0.965
- relative viability ([8]; first compound 0.5 µM): 0.844
- relative viability ([9]; first compound 0.005 µM): 0.216
- relative viability ([9]; first compound 0.01581 µM): 0.256
- relative viability ([9]; first compound 0.05 µM): 0.241
- relative viability ([9]; first compound 0.1581 µM): 0.177
- relative viability ([9]; first compound 0.5 µM): 0.146
- relative viability ([3]; first compound 0.005 µM): 0.712
- relative viability ([3]; first compound 0.01581 µM): 0.848
- relative viability ([3]; first compound 0.05 µM): 0.876
- relative viability ([3]; first compound 0.1581 µM): 0.946
- relative viability ([3]; first compound 0.5 µM): 0.734
- relative viability ([10]; first compound 0.005 µM): 1
- relative viability ([10]; first compound 0.01581 µM): 0.736
- relative viability ([10]; first compound 0.05 µM): 0.799
- relative viability ([10]; first compound 0.1581 µM): 1.25
- relative viability ([10]; first compound 0.5 µM): 0.713
- relative viability ([4]; first compound 0.005 µM): 0.367
- relative viability ([4]; first compound 0.01581 µM): 0.365
- relative viability ([4]; first compound 0.05 µM): 0.37
- relative viability ([4]; first compound 0.1581 µM): 0.363
- relative viability ([4]; first compound 0.5 µM): 0.352
- relative viability ([11]; first compound 0.005 µM): 0.867
- relative viability ([11]; first compound 0.01581 µM): 0.891
- relative viability ([11]; first compound 0.05 µM): 0.857
- relative viability ([11]; first compound 0.1581 µM): 0.697
- relative viability ([11]; first compound 0.5 µM): 0.672
- relative viability ([12]; first compound 0.005 µM): 0.642
- relative viability ([12]; first compound 0.01581 µM): 0.704
- relative viability ([12]; first compound 0.05 µM): 0.708
- relative viability ([12]; first compound 0.1581 µM): 0.777
- relative viability ([12]; first compound 0.5 µM): 0.736
- relative viability ([5]; first compound 0.005 µM): 0.613
- relative viability ([5]; first compound 0.01581 µM): 0.628
- relative viability ([5]; first compound 0.05 µM): 0.658
- relative viability ([5]; first compound 0.1581 µM): 0.613
- relative viability ([5]; first compound 0.5 µM): 0.584
- relative viability ([13]; first compound 0.005 µM): 0.349
- relative viability ([13]; first compound 0.01581 µM): 0.456
- relative viability ([13]; first compound 0.05 µM): 0.398
- relative viability ([13]; first compound 0.1581 µM): 0.0913
- relative viability ([13]; first compound 0.5 µM): 0.246
- relative viability ([6]; first compound 0.005 µM): 0.984
- relative viability ([6]; first compound 0.01581 µM): 0.994
- relative viability ([6]; first compound 0.05 µM): 1.09
- relative viability ([6]; first compound 0.1581 µM): 1.13
- relative viability ([6]; first compound 0.5 µM): 0.99
- relative viability ([14]; first compound 0.005 µM): 0.967
- relative viability ([14]; first compound 0.01581 µM): 0.911
- relative viability ([14]; first compound 0.05 µM): 0.998
- relative viability ([14]; first compound 0.1581 µM): 0.949
- relative viability ([14]; first compound 0.5 µM): 0.999
- relative viability ([15]; first compound 0.005 µM): 0.581
- relative viability ([15]; first compound 0.01581 µM): 0.618
- relative viability ([15]; first compound 0.05 µM): 0.522
- relative viability ([15]; first compound 0.1581 µM): 0.671
- relative viability ([15]; first compound 0.5 µM): 0.519
